Key:
[1] = test system: Peripheral blood mononuclear cells (PBMCs); test: PBMC proliferation by tritiated thymidine incorporation, with or without the T-cell mitogen PHA; assay type: cell-based, piglets; details: 72 hours; for unstimulated peripheral blood mononuclear cell proliferation: HMO or HMO mixture 125 μg/mL alone (no PHA), FIG. 2; for PHA-stimulated peripheral blood mononuclear cell proliferation: HMO or HMO mixture 125 μg/mL with 25 μg/mL PHA, compared to cultures containing no HMO, FIG. 1
Experimental: T-cell mediated responses were assessed by proliferative responses to the T-cell mitogen phytohemagglutinin (PHA) (simulates infection). […] Peripheral blood mononuclear cells (PBMCs) were isolated using standard density gradient (Ficoll-Paque PLUS) techniques. Residual red blood cells were lysed with a hypotonic ammonium chloride solution. Cells were washed and resuspended in RPMI (Roswell Park Memorial Institute medium) media containing: 10% fetal bovine serum, 2 mM Glutamine, 1 mM sodium pyruvate, 20 mM HEPES (4-(2-hydroxyethyl)-1-piperazineethanesulfonic acid), 50 μg/mL gentamicin, 1000 IU/mL penicillin and 100 μg/mL streptomycin, at a concentration of 1×10^6/mL, and then cultured in the presence or absence of the individual HMOs or HMO mixtures at a concentration of 125 μg/mL, alone or in combination with 25 μg/mL PHA. Cells were cultured for 72 hours, and cellular proliferation was determined using standard tritiated thymidine incorporation methodology.

[2] = test system: T regulatory cells (FoxP3+, CD4+, CD25+) in mesenteric lymph nodes; test: T-regulatory cells in mesenteric lymph nodes of orally supplemented mice, by flow cytometry; assay type: in vivo; details: oral 7.5 mg daily for 5 days versus PBS, day six, FIG. 3
Experimental: Mice were orally supplemented with 7.5 mg of 2′FL in 200 μL of PBS (n=5) or 200 μL of PBS (n=5) daily for 5 days. On day six, mice were sacrificed and lymphocytes from mesenteric lymph nodes were removed and isolated using standard methods. Mesenteric lymph node lymphocytes (MLNLs) were stained with fluorochrome labeled monoclonal antibodies specific for CD4 and CD25 surface markers. Cells were then fixed with a paraformaldehyde solution to maintain surface marker staining integrity. Stained MLNLs were permeabilized with a saponin-based solution to allow for intracellular uptake of monoclonal antibodies and then stained with a fluorochrome labeled monoclonal antibody specific for the transcription factor FoxP3. All cell preparation methods used were based on recommendations of the monoclonal antibody manufacturer. MLNL suspensions were analyzed by flow cytometery. FoxP3^+, CD4^+, and CD25^+ cells are classified T regulatory cells.

[3] = test system: gastrointestinal epithelial cells; details: Kuntz et al (2008); cited from earlier work

Compound | unstimulated peripheral blood mononuclear cell proliferation [1] | PHA-stimulated peripheral blood mononuclear cell proliferation [1] | further results
2′-fucosyllactose [2′FL] | decreased unstimulated peripheral blood mononuclear cell proliferation | – | percentage of T-regulatory cells in mesenteric lymph nodes [2]: generation of T regulatory cells
3-fucosyllactose [3′FL] | decreased unstimulated peripheral blood mononuclear cell proliferation | – | –
CC(=O)N[C@H]1[C@H](O[C@H]2[C@@H](O)[C@@H](CO)O[C@@H](O[C@H]3[C@H](O)[C@@H](O)C(O)O[C@@H]3CO)[C@@H]2O)O[C@H](CO)[C@@H](O[C@@H]2O[C@H](CO)[C@H](O)[C@H](O)[C@H]2O)[C@@H]1O (mixture of isomers) [LNnT, Lacto-N-neotetraose] | this was not seen | did not significantly enhance proliferation | –
Fucosyllactose [FL] | – | did not significantly enhance proliferation | –
sialyllactose [SL] | – | – | differentiation of gastrointestinal epithelial cells [3]: increases differentiation; proliferation of gastrointestinal epithelial cells [3]: decreases proliferation
